What is called DC50 is the midpoint of the concentration-degradation curve.

The structures appear in SMILES notation.

For the assay, the target named is T1, IRAK4 (Homo sapiens, UniProt Q9NWZ3).
T1 construct: endogenous in cells; host or cells: OCI-LY10
T1 sequence (Q9NWZ3 1-460): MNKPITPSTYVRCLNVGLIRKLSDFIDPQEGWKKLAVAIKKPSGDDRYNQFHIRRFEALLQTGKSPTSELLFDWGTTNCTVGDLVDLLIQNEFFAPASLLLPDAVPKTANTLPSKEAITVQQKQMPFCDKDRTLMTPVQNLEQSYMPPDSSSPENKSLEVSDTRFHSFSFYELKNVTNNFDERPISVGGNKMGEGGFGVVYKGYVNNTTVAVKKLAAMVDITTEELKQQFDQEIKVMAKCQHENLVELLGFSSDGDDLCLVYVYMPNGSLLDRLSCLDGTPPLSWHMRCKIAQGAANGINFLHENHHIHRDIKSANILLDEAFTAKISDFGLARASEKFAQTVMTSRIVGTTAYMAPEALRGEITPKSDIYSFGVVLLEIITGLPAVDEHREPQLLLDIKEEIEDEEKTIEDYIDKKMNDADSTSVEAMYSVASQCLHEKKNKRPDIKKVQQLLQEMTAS
The assay can be described thus: IRAK4 MSD Degradation in OCI-LY10. It is filed as cell-based. The following applies: OCI-LY10 cells, Meso Scale Discovery, incubated 4 to 24 hours. In outline:
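IRAK4 degradation was quantified by Meso Scale electrochemiluminescence (anti-IRAK4 capture and detection antibodies) in lysates of treated OCI-LY10 cells. Compounds were dosed at 8 concentrations (1:3 dilutions, top 1 to 10 μM) for 4 to 24 h; DC50 derived by three-parameter logistic fitting.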

Regarding `Cn1c(=O)n(C2CCC(=O)NC2=O)c2cccc(N3CCN(C[C@H]4CC[C@H](n5cc6cc(NC(=O)c7cccc(C(F)(F)F)n7)ccc6n5)CC4)C(C)(C)C3)c21` (some centres unmarked) [I-324], the DC50 was 0.01 to 0.05 µM.

Consider `CC(C)(O)c1cc2nc([C@H]3CC[C@H](CN4CCN(CCCNc5cccc6c5C(=O)N(C5CCC(=O)NC5=O)C6=O)CC4)CC3)sc2cc1NC(=O)c1cccc(C#N)n1` (some centres unmarked) [I-440], for which the DC50 is 0.01 to 0.05 µM.

Regarding `CN(CCCNc1cccc2c1C(=O)N(C1CCC(=O)NC1=O)C2=O)C(=O)[C@H]1CC[C@H](c2nc3cc(C(C)(C)O)c(NC(=O)c4cccc(C(F)(F)F)n4)cc3s2)CC1` (some centres unmarked) [I-489], the DC50 is greater than 0.2 µM.

In turn, `COc1cc2nc([C@H]3CC[C@H](CN(C)CCCCNc4cccc5c4C(=O)N(C4CCC(=O)NC4=O)C5=O)CC3)sc2cc1NC(=O)c1cccc(C(F)(F)F)n1` (some centres unmarked) [I-446] showed a half-maximal degradation concentration (DC50) of 0.01 to 0.05 µM.

With `COc1cc2nn([C@H]3CC[C@H](CN(C)C4CCN(c5cccc6c5n(C)c(=O)n6C5CCC(=O)NC5=O)CC4)CC3)cc2cc1NC(=O)c1cc(F)cc(C(F)(F)F)c1` (some centres unmarked) [I-131], the 50% degradation concentration (DC50) was in the range of 0.01 to 0.05 µM.

Turning to `CC(C)(O)c1cc2nc([C@H]3CC[C@H](C(=O)N4CCN(CCNc5cccc6c5C(=O)N(C5CCC(=O)NC5=O)C6=O)CC4)CC3)sc2cc1NC(=O)c1cncc(C#N)c1` (some centres unmarked) [I-431], the half-maximal degradation concentration (DC50) is greater than 0.2 µM.

Take `COc1cc2nn([C@H]3CC[C@H](CN4CCC(c5cc(C)cc6c5n(C)c(=O)n6C5CCC(=O)NC5=O)CC4)CC3)cc2cc1NC(=O)c1cccc(C(F)(F)F)n1` (some centres unmarked) [I-35]: the 50% degradation concentration (DC50) is less than 0.01 µM.

In turn, `COc1cc2nc([C@H]3CC[C@H](CN(C)CCCNc4cccc5c4C(=O)N(C4CCC(=O)NC4=O)C5=O)CC3)sc2cc1NC(=O)c1cncc(F)c1` (some centres unmarked) [I-482] showed a DC50 greater than 0.2 µM.

In turn, `Cn1c(=O)n(C2CCC(=O)NC2=O)c2ccc(Cl)c(C3CCN(C[C@H]4C[C@H](n5cc6cc(NC(=O)c7cccc(C(F)(F)F)n7)c(Cl)cc6n5)C4)CC3)c21` (some centres unmarked) [I-144] returned a 50% degradation concentration (DC50) of 0.05 to 0.1 µM.

In the case of `COc1cc2nn([C@H]3CC[C@H](CN4C5CCC4CN(c4cccc6c4n(C)c(=O)n6C4CCC(=O)NC4=O)C5)CC3)cc2cc1NC(=O)c1cccc(C(F)(F)F)n1` (some centres unmarked) [I-167], the 50% degradation concentration (DC50) is less than 0.01 µM.

The compound `Cc1cc2nn([C@H]3CC[C@H](CN4CCN(c5cccc6c5n(C)c(=O)n6C5CCC(=O)NC5=O)CC4)CC3)cc2cc1NC(=O)c1cncc(C(F)(F)F)n1` (some centres unmarked) [I-401] had a DC50 of less than 0.01 µM.

On to `Cn1c(=O)n(C2CCC(=O)NC2=O)c2cccc(N3CC4CC(C3)N4C[C@H]3CC[C@H](n4cc5cc(NC(=O)c6cccc(C(F)(F)F)n6)c(C(C)(C)O)cc5n4)CC3)c21` (some centres unmarked) [I-232], for which the DC50 was less than 0.01 µM.

For `COc1cc2nn([C@H]3C[C@@H](CN(C)C4CCN(c5cccc6c5n(C)c(=O)n6C5CCC(=O)NC5=O)CC4)C3)cc2cc1NC(=O)c1cccc(C(F)(F)F)n1` (some centres unmarked) [I-32, N-[2-[3-[[[1-[1-(2,6-dioxo-3-piperidyl)-3-methyl-2-oxo-benzimidazol-4-yl]-4-piperidyl]-methyl-amino]methyl]cyclobutyl]-6-methoxy-indazol-5-yl]-6-(trifluoromethyl)pyridine-2-carboxamide], the half-maximal degradation concentration (DC50) is less than 0.01 µM.

`COc1cc2nn([C@H]3CC[C@H](CN4C5CCC4CN(c4cccc6c4n(C)c(=O)n6C4CCC(=O)NC4=O)C5)CC3)cc2cc1NC(=O)c1cncc(C#N)c1` (some centres unmarked) [I-262] gave a DC50 of less than 0.01 µM.

For the compound `COc1ccc2c(c1N1CCN(C[C@H]3CC[C@H](NC(=O)c4cnc(-n5ccc6cc(C#N)cnc65)cc4NC(C)C)CC3)CC1)n(C)c(=O)n2C1CCC(=O)NC1=O` (some centres unmarked) [I-391], the half-maximal degradation concentration (DC50) was in the range of 0.01 to 0.05 µM.

The compound `CC(C)(O)c1cc2nc([C@H]3CC[C@H](C(=O)N4CC5(CC(CCNc6cccc7c6C(=O)N(C6CCC(=O)NC6=O)C7=O)C5)C4)CC3)sc2cc1NC(=O)c1cccc(C#N)n1` (some centres unmarked) [I-436] returned a 50% degradation concentration (DC50) of 0.05 to 0.1 µM.

The compound `COc1cc2nn(CCN(C)C3CCN(c4cccc5c4n(C)c(=O)n5C4CCC(=O)NC4=O)CC3)cc2cc1NC(=O)c1cccc(C(F)(F)F)n1` (centres unmarked) [I-20, N-[2-[2-[[1-[1-(2,6-dioxo-3-piperidyl)-3-methyl-2-oxo-benzimidazol-4-yl]-4-piperidyl]-methyl-amino]ethyl]-6-methoxy-indazol-5-yl]-6-(trifluoromethyl)pyridine-2-carboxamide] gave a DC50 greater than 0.2 µM.

Consider `CC(C)Nc1cc(-c2ccc3cc(C#N)cnn23)ncc1C(=O)N[C@H]1CC[C@H](CN2CCC(c3ccc4c(N5CCC(=O)NC5=O)cncc4c3)CC2)CC1` [I-198], for which the DC50 was less than 0.01 µM.

`Cn1c(=O)n(C2CCC(=O)NC2=O)c2cccc(N3CCN(C[C@H]4CC[C@H](n5cc6cc(NC(=O)c7cccc(C(F)(F)F)n7)c(Cl)cc6n5)CC4)CC3)c21` (some centres unmarked) [I-360] came in with a half-maximal degradation concentration (DC50) of 0.01 to 0.05 µM.

The compound `COc1cc2nn([C@H]3CC[C@H](CN4CCC(c5cccc6c(N7CCC(=O)NC7=O)cncc56)CC4)CC3)cc2cc1NC(=O)c1cc(F)cc(C(F)(F)F)c1` [I-123] came in with a DC50 of 0.01 to 0.05 µM.

On to `Cn1c(=O)n(C2CCC(=O)NC2=O)c2cc(F)cc(C3CCN(C[C@H]4CC[C@H](n5cc6cc(NC(=O)c7cccc(C(F)(F)F)n7)c(F)cc6n5)CC4)CC3)c21` (some centres unmarked) [I-26], for which the DC50 was less than 0.01 µM.

Take `COc1cc2nn([C@H]3CC[C@H](CN4CCC(c5cccc6c5n(C)c(=O)n6C5CCC(=O)NC5=O)CC4)CC3)cc2cc1NC(=O)c1cncc(Cl)c1` (some centres unmarked) [I-93]: the 50% degradation concentration (DC50) is less than 0.01 µM.

For the compound `COc1ccc2c(c1C1CCN(C[C@H]3CC[C@H](n4cc5cc(NC(=O)c6cccc(C(F)(F)F)n6)ncc5n4)CC3)CC1)n(C)c(=O)n2[C@@H]1CCC(=O)NC1=O` (single isomer, unassigned) [I-274], the 50% degradation concentration (DC50) lay within 0.01 to 0.05 µM.

Compound `CN(C[C@H]1CC[C@H](n2cc3cc(NC(=O)c4cccc(C(F)(F)F)n4)ncc3n2)CC1)C1CCN(c2ccc3c(N4CCC(=O)NC4=O)cncc3c2)CC1` [I-317] showed a DC50 of 0.1 to 0.2 µM.

`CC(C)Nc1cc(-n2ccc3cc(C#N)cnc32)ncc1-c1cn([C@H]2CC[C@H](CN3CCN(c4cccc5c4n(C)c(=O)n5C4CCC(=O)NC4=O)CC3)CC2)nn1` (some centres unmarked) [I-231] showed a DC50 of 0.01 to 0.05 µM.

On to `Cn1c(=O)n(C2CCC(=O)NC2=O)c2cccc(C3C[C@H]4CC[C@@H](C3)N4C[C@H]3CC[C@H](n4cc5cc(NC(=O)c6cccc(C(F)(F)F)n6)ccc5n4)CC3)c21` (single isomer, unassigned) [I-250], for which the half-maximal degradation concentration (DC50) is 0.01 to 0.05 µM.

In turn, `Cc1cccc(C(=O)Nc2cc3sc([C@H]4CC[C@H](C(=O)N5CCC6(CC5)CC(CCNc5cccc7c5C(=O)N(C5CCC(=O)NC5=O)C7=O)C6)CC4)nc3cc2C(C)(C)O)n1` (some centres unmarked) [I-474] gave a DC50 greater than 0.2 µM.

In the case of `CC(C)(O)c1cc2nc([C@H]3CC[C@H](C(=O)N4CCN(CCNc5cccc6c5C(=O)N(C5CCC(=O)NC5=O)C6=O)CC4)CC3)sc2cc1NC(=O)c1cccc(C#N)n1` (some centres unmarked) [I-434], the DC50 lay within 0.05 to 0.1 µM.

Turning to `COc1cc2nn([C@H]3C[C@H](CN4CCC(c5ccc6c(N7CCC(=O)NC7=O)cncc6c5)CC4)C3)cc2cc1NC(=O)c1cccc(C(F)(F)F)n1` [I-119], the DC50 was greater than 0.2 µM.

`CN(CCCO[C@H]1C[C@H](Nc2cccc3c2C(=O)N(C2CCC(=O)NC2=O)C3=O)C1)C[C@H]1CC[C@H](n2cc3cc(NC(=O)c4cccc(C(F)(F)F)n4)ncc3n2)CC1` (some centres unmarked) [I-353] came in with a 50% degradation concentration (DC50) greater than 0.2 µM.

Turning to `Cn1c(=O)n(C2CCC(=O)NC2=O)c2ccc(C3CCN(C[C@H]4CC[C@H](n5cc6cc(NC(=O)c7cccc(C(F)(F)F)n7)ccc6n5)CC4)CC3)c(Cl)c21` (some centres unmarked) [I-180], the half-maximal degradation concentration (DC50) was greater than 0.2 µM.

On to `N#Cc1cc2nn([C@H]3CC[C@H](CN4CCN(c5cccc6c(N7CCC(=O)NC7=O)cncc56)CC4)CC3)cc2cc1NC(=O)c1cccc(C(F)(F)F)n1` [I-288], for which the DC50 is 0.01 to 0.05 µM.

The values are drawn from patent US12150995B2, “IRAK degraders and uses thereof” (Kymera Therapeutics, Inc., priority 2020, dated 2024).
